The record followed here is ChEMBL document CHEMBL1201862, “PubChem BioAssay data set” (2004).

Test systems include A549; OVCAR-3; MOLT-4; SF-268; EKVX; SK-MEL-28; MDA-N; MDA-MB-435; T47D; DU-145; UO-31; M14; SN12C; BT-549; SF-539; Malme-3M; TK-10.
Assay in all cases: growth of human tumour cells (NCI), 48 h

SMILES strings stand for the structures.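 These data come from cells grown in 96-well plates and exposed to compound for 48 hours at five concentrations. At the GI50, growth is halved.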 The source made the active and inactive calls. No stated cut-off is given here; in the data, active = GI50 up to about 1.1 µM and inactive = higher. Bounds are passed on as bounds.

As for `COc1cc(C2C3=C(N=C4SC(C(C)=O)=C(C)N42)c2ccccc2CC3)cc(OC)c1OC` (stereo unspecified), the GI50 in the assay on A549 was > 100 µM (inactive); in the assay with OVCAR-3, > 100 µM (inactive); in the assay on MOLT-4 it was > 10 µM (inactive); with SF-268 it was > 100 µM (inactive); in the assay with EKVX it was 85.5 µM (inactive); in the assay on SK-MEL-28, > 100 µM (inactive). In addition, the GI50 with MDA-N is 28.7 µM (inactive); in the assay with MDA-MB-435 it was 57 µM (inactive); in the assay with T47D, 11.4 µM (inactive); in the assay with DU-145, > 100 µM (inactive); in the assay with UO-31, > 100 µM (inactive); with M14, > 100 µM (inactive). In addition, the GI50 with SN12C, in the assay on BT-549 and with SF-539 was > 100 µM (inactive) in each case.

For the compound `O=S(=O)(O)c1ccc2c(/N=N/c3cccc4ccccc34)c(O)c(S(=O)(=O)O)cc2c1`, the GI50 with A549, in the assay on OVCAR-3, with MOLT-4, in the assay on SF-268, in the assay on Malme-3M and with EKVX was > 100 µM (inactive) throughout. The GI50 with SK-MEL-28, in the assay on MDA-N, with MDA-MB-435, with T47D, in the assay with DU-145 and in the assay on UO-31 was > 100 µM (inactive) throughout. Moreover, the GI50 in the assay on M14, with SN12C, in the assay with TK-10 and with BT-549 was > 100 µM (inactive) throughout.

Regarding `COc1ccc(C2=C(N)c3c(Cl)cccc3C2=O)cc1`, the GI50 in the assay on A549 is > 100 µM (inactive); in the assay with OVCAR-3, > 100 µM (inactive); in the assay with MOLT-4, 95.1 µM (inactive); in the assay with SF-268, > 100 µM (inactive); in the assay on Malme-3M, > 100 µM (inactive); with EKVX it was > 100 µM (inactive). Moreover, the GI50 is > 100 µM (inactive) with SK-MEL-28; > 100 µM (inactive) with MDA-N; > 100 µM (inactive) in the assay with MDA-MB-435; 78 µM (inactive) with T47D; > 100 µM (inactive) with DU-145; > 100 µM (inactive) with M14. Besides, the GI50 with SN12C, in the assay with BT-549 and in the assay on SF-539 was > 100 µM (inactive) throughout.

Turning to `C=CC1=C(C)c2cc3[nH]c(c4c5nc(cc6[nH]c(cc1n2)c(C)c6CC)C=C5C(=O)C4C(=O)OC)C(CCC(=O)OC/C=C(\C)CCCC(C)CCCC(C)CCCC(C)C)C3C.C=CC1=C(C)c2cc3[nH]c(c4c5nc(cc6[nH]c(cc1n2)c(C=O)c6CC)C=C5C(=O)C4C(=O)OC)C(CCC(=O)OC/C=C(\C)CCCC(C)CCCC(C)CCCC(C)C)C3C` (stereo unspecified), the GI50 in the assay on A549 is > 100 µM (inactive); in the assay on OVCAR-3 it was > 100 µM (inactive); in the assay with MOLT-4, > 100 µM (inactive); with SF-268 it was > 100 µM (inactive); in the assay on EKVX, 50.6 µM (inactive); in the assay with SK-MEL-28, > 100 µM (inactive). In addition, the GI50 with MDA-N, with MDA-MB-435, in the assay with T47D, in the assay on DU-145, in the assay on UO-31 and in the assay on M14 was > 100 µM (inactive) in each case. Moreover, the GI50 in the assay with SN12C is > 100 µM (inactive); with TK-10 it was > 100 µM (inactive); in the assay with BT-549, 76.4 µM (inactive); in the assay with SF-539, > 100 µM (inactive).

Consider `CN1c2ccccc2SC2C(c3ccccc3)=NOC21` (stereo unspecified), for which the GI50 is 36.5 µM (inactive) with A549; 56.1 µM (inactive) with OVCAR-3; 30.4 µM (inactive) in the assay on MOLT-4; 51.8 µM (inactive) in the assay on SF-268; 8.39 µM (inactive) in the assay on Malme-3M; 24.9 µM (inactive) in the assay with EKVX. The GI50 with SK-MEL-28 was 31.1 µM (inactive); with MDA-N it was 22.9 µM (inactive); in the assay on T47D, 21.5 µM (inactive); in the assay on DU-145 it was 65.6 µM (inactive); in the assay with UO-31, 35.1 µM (inactive); in the assay with M14 it was 38.2 µM (inactive). Further, the GI50 with SN12C was 47.8 µM (inactive); in the assay on TK-10, 16.2 µM (inactive); with BT-549, 26.6 µM (inactive); in the assay with SF-539, 27.7 µM (inactive).

On to `O=C1Cc2c([nH]c3cc(Br)ccc23)-c2ccccc2N1`, for which the GI50 with A549 is 15.8 µM (inactive); in the assay with OVCAR-3, 19.6 µM (inactive); with MOLT-4 it was 3.56 µM (inactive); in the assay on SF-268, 25.2 µM (inactive); in the assay with Malme-3M it was 20.8 µM (inactive); with SK-MEL-28, > 100 µM (inactive). For the same compound, the GI50 in the assay with MDA-N is 30.1 µM (inactive); in the assay with MDA-MB-435, 26.5 µM (inactive); in the assay on T47D, 10.9 µM (inactive); in the assay on DU-145, 21.4 µM (inactive); in the assay with UO-31, 17.6 µM (inactive); in the assay with M14, 18.5 µM (inactive). The GI50 was 18.5 µM (inactive) in the assay on SN12C, 29.3 µM (inactive) in the assay with TK-10, 17.2 µM (inactive) with BT-549 and 16.2 µM (inactive) in the assay with SF-539.

`O=C1C(N2CCNCC2)=C(Cl)C(=O)c2ncccc21`: the GI50 in the assay with A549 was > 10 µM (inactive); in the assay on OVCAR-3, > 10 µM (inactive); in the assay with MOLT-4, 2.44 µM (inactive); in the assay with SF-268, > 10 µM (inactive); with Malme-3M, > 10 µM (inactive); in the assay on EKVX, > 10 µM (inactive). Also, the GI50 in the assay on SK-MEL-28 was > 10 µM (inactive); in the assay with MDA-N, 4.47 µM (inactive); in the assay on MDA-MB-435 it was 4.6 µM (inactive); with T47D, > 10 µM (inactive); in the assay on DU-145, 6.79 µM (inactive); in the assay on M14, > 10 µM (inactive). The GI50 in the assay with SN12C, in the assay with TK-10, in the assay on BT-549 and in the assay with SF-539 was > 10 µM (inactive) throughout.

On to `NCC(=O)N[C@H]1c2ccsc2/C(=N/O)[C@H]1O`, for which the GI50 in the assay on A549, with OVCAR-3, in the assay with MOLT-4, in the assay on Malme-3M, in the assay on EKVX and with SK-MEL-28 was > 100 µM (inactive) throughout. Moreover, the GI50 in the assay on MDA-N, in the assay on MDA-MB-435, in the assay on T47D, in the assay with DU-145, in the assay with UO-31 and in the assay on M14 was > 100 µM (inactive) throughout. In addition, the GI50 in the assay with SN12C, in the assay with TK-10, in the assay with BT-549 and with SF-539 was > 100 µM (inactive) each time.

Take `O=C1Nc2ccccc2C(=O)/C1=C/NC(=S)NCCc1ccccc1`: the GI50 in the assay with A549 is > 100 µM (inactive); in the assay with OVCAR-3 it was > 100 µM (inactive); in the assay on MOLT-4 it was 4.03 µM (inactive); in the assay on EKVX, > 100 µM (inactive); with SK-MEL-28, > 100 µM (inactive); in the assay with MDA-N, > 100 µM (inactive). In addition, the GI50 in the assay with MDA-MB-435, in the assay with T47D, in the assay with DU-145, in the assay on UO-31, in the assay with M14 and with SN12C was > 100 µM (inactive) throughout. Further, the GI50 in the assay with TK-10 was 22.1 µM (inactive); in the assay on BT-549 it was > 100 µM (inactive); with SF-539 it was > 100 µM (inactive).

With `COc1cc(OC2OC(CO)C(O)C(O)C2O)c2c(O)c3c(=O)cc(C)oc3cc2c1` (stereo unspecified), the GI50 in the assay on A549 is > 100 µM (inactive); with OVCAR-3 it was > 100 µM (inactive); in the assay on MOLT-4, > 100 µM (inactive); with SF-268, 64.3 µM (inactive); in the assay on Malme-3M, 67.1 µM (inactive); in the assay on EKVX, > 100 µM (inactive). The GI50 was > 100 µM (inactive) with SK-MEL-28; > 10 µM (inactive) in the assay with MDA-N; > 100 µM (inactive) with MDA-MB-435; > 100 µM (inactive) in the assay on T47D; > 100 µM (inactive) in the assay with DU-145; > 100 µM (inactive) with UO-31. For the same compound, the GI50 in the assay with M14 was > 100 µM (inactive); in the assay with TK-10 it was > 100 µM (inactive); in the assay on BT-549 it was 29.5 µM (inactive); in the assay with SF-539, 94 µM (inactive).

In the case of `CN(C)/N=N/c1ccc(NC=O)cc1`, the GI50 in the assay with A549 is > 100 µM (inactive); with OVCAR-3, > 100 µM (inactive); with MOLT-4, 55.8 µM (inactive); in the assay with SF-268, 0.456 µM (active); with EKVX, > 100 µM (inactive); in the assay on SK-MEL-28, > 100 µM (inactive). For the same compound, the GI50 in the assay on MDA-N was > 100 µM (inactive); in the assay with MDA-MB-435 it was > 100 µM (inactive); in the assay on T47D, 39.6 µM (inactive); in the assay on DU-145, > 100 µM (inactive); in the assay with UO-31, 82.8 µM (inactive); with M14, > 100 µM (inactive). Also, the GI50 in the assay on SN12C, with TK-10, in the assay with BT-549 and in the assay with SF-539 was > 100 µM (inactive) each time.

In the case of `CCC(=O)OCN(C)c1nc(N(C)COC(=O)CC)nc(N(C)COC(=O)CC)n1`, the GI50 was > 100 µM (inactive) with OVCAR-3; 20.8 µM (inactive) with MOLT-4; 32.6 µM (inactive) in the assay with Malme-3M; 64.9 µM (inactive) in the assay with SK-MEL-28; 33.3 µM (inactive) in the assay on MDA-N; > 100 µM (inactive) in the assay with MDA-MB-435. The GI50 in the assay on T47D is 35.3 µM (inactive); in the assay on DU-145 it was 37 µM (inactive); with UO-31 it was 56.6 µM (inactive); with M14, 28.1 µM (inactive); with SN12C it was 39.8 µM (inactive); in the assay on TK-10, > 100 µM (inactive). The GI50 with BT-549 was 32.9 µM (inactive).
